Biological target: T1, PD-1/PD-L1 (Homo sapiens, UniProt Q9NZQ7)
T1 construct: TVMV protease site linker (C); made in house; host or cells: HEK293T cells
Test: PD-1/PD-L1 Homogenous Time-Resolved Fluorescence (HTRF) binding assay
Details: PD-L1-His 10 nM, PD-1-Ig 20 nM
Method in brief: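 Inhibitors pre-incubated 15 min with PD-L1-His extracellular domain (10 nM final) in dPBS with 0.1% BSA and 0.05% Tween-20, then PD-1-Ig (20 nM final) added for a further 15 min. Read-out by HTRF with europium cryptate anti-Ig (1 nM) and APC anti-His (20 nM). Related pairs: PD-1-Ig/PD-L2-His (20/5 nM), CD80-His/PD-L1-Ig (100/10 nM).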

T1 sequence (Q9NZQ7 18-239): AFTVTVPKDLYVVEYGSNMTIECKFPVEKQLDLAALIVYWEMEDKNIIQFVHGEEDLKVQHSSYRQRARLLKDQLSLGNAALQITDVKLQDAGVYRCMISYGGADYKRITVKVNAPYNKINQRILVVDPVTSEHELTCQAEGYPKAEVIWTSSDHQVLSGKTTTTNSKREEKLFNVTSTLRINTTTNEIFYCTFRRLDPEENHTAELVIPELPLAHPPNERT

| Structure (SMILES) | IC50 [nM] |
| --- | --- |
| CC(=O)NC1CCN(CCCOc2cccc(-c3cccc(COc4cc(OCc5cncc(C#N)c5)c(CNC(C)c5nnn[nH]5)cc4Cl)c3C)c2C)CC1 (stereo not drawn) [Example 1043, N-(1-(3-((3′-((4-(((1-(1H-Tetrazol-5-yl)ethyl)amino)methyl)-2-chloro-5-((5-cyanopyridin-3-yl)methoxy)phenoxy)methyl)-2,2′-dimethyl-[1,1′-biphenyl]-3-yl)oxy)propyl)piperidin-4-yl)acetamide] | 3.1 |
| Cc1nc2ccc(CNCc3cc(Cl)c(OCc4cccc(-c5cccc(OCC6CCCN(C)C6)c5Cl)c4C)cc3OCc3cncc(C#N)c3)cc2[nH]1 (stereo not drawn) [Example 2609, 5-((4-chloro-5-((2′-chloro-2-methyl-3′-((1-methylpiperidin-3-yl)methoxy)-[1,1′-biphenyl]-3-yl)methoxy)-2-((((2-methyl-1H-benzo[d]imidazol-6-yl)methyl)amino)methyl)phenoxy)methyl)nicotinonitrile] | 1.1 |
| Cc1c(COc2cc(OCc3cncc(C#N)c3)c(CN3CCCCC3c3cn[nH]c3)cc2Cl)cccc1-c1cccc(OCCCNC[C@H](O)CO)c1Cl (stereo partly drawn) [Example 1032, 5-((2-((2-(1H-Pyrazol-4-yl)piperidin-1-yl)methyl)-4-chloro-5-((2′-chloro-3′-(3-(((S)-2,3-dihydroxypropyl)amino)propoxy)-2-methyl-[1,1′-biphenyl]-3-yl)methoxy)phenoxy)-methyl)nicotinonitrile] | 0.8 |
| Cc1c(COc2cc(OCc3cccnn3)c(CNCc3ncc[nH]3)cc2Cl)cccc1-c1cccc(OCC2CCCN(C)C2)c1Cl (stereo not drawn) [Example 2055, N-((1H-imidazol-2-yl)methyl)-1-(5-chloro-4-((2′-chloro-2-methyl-3′-((1-methylpiperidin-3-yl)methoxy)-[1,1′-biphenyl]-3-yl)methoxy)-2-(pyridazin-3-ylmethoxy)phenyl)methanamine] | 3.1 |
| Cc1c(COc2cc(OCc3cncc(C#N)c3)c(CN3CCC4C(C3)C(CO)=NN4C)cc2Cl)cccc1-c1cccc(OCC2CCCN(C)C2)c1Cl (stereo not drawn) [Example 1029, 5-((4-Chloro-5-((2′-chloro-2-methyl-3′-((1-methylpiperidin-3-yl)methoxy)-[1,1′-biphenyl]-3-yl)methoxy)-2-((3-(hydroxymethyl)-1-methyl-1,3a,4,6,7,7a-hexahydro-5H-pyrazolo[4,3-c]pyridin-5-yl)methyl)phenoxy)methyl)nicotinonitrile] | 2 |
| Cc1c(COc2cc(OCc3cncc(C#N)c3)c(CN(C)CCc3nn[nH]n3)cc2Cl)cccc1-c1cccc(OCCCN2CC[C@@H](O)C2)c1C [Example 1004, (R)-5-((2-(((2-(2H-Tetrazol-5-yl)ethyl)(methyl)amino)methyl)-4-chloro-5-((3′-(3-(3-hydroxypyrrolidin-1-yl)propoxy)-2,2′-dimethyl-[1,1′-biphenyl]-3-yl)methoxy)phenoxy)-methyl)nicotinonitrile] | 1.1 |
| Cc1c(COc2cc(OCc3cncc(C#N)c3)c(CNCc3cc[nH]n3)cc2Cl)cccc1-c1cccc(OCCCN2CCC(O)(CO)CC2)c1Cl [Example 2012, 5-((2-((((1H-pyrazol-3-yl)methyl)amino)methyl)-4-chloro-5-((2′-chloro-3′-(3-(4-hydroxy-4-(hydroxymethyl)piperidin-1-yl)propoxy)-2-methyl-[1,1′-biphenyl]-3-yl)methoxy)phenoxy)methyl)nicotinonitrile] | 2.6 |
| CC(=O)NC1CCN(CCCOc2cccc(-c3cccc(COc4cc(OCc5cncc(C#N)c5)c(CNc5nnn[nH]5)cc4Cl)c3C)c2Cl)CC1 [Example 1056, N-(1-(3-((3′-((4-(((1H-Tetrazol-5-yl)amino)methyl)-2-chloro-5-((5-cyanopyridin-3-yl)-methoxy)phenoxy)methyl)-2-chloro-2′-methyl-[1,1′-biphenyl]-3-yl)oxy)propyl)piperidin-4-yl)acetamide] | 1.8 |
| Cc1c(COc2cc(OCc3cncc(C#N)c3)c(CN3CCCC3c3cn[nH]c3)cc2Cl)cccc1-c1cccc(OCC2CCCN(C)C2)c1Cl (stereo not drawn) [Example 1025, 5-((2-((2-(1H-Pyrazol-4-yl)pyrrolidin-1-yl)methyl)-4-chloro-5-((2′-chloro-2-methyl-3′-((1-methylpiperidin-3-yl)methoxy)-[1,1′-biphenyl]-3-yl)methoxy)phenoxy)methyl)-nicotinonitrile] | 0.5 |
| Cc1c(COc2cc(OCc3cncc(C#N)c3)c(CN(C)CCc3c[nH]cn3)cc2Cl)cccc1-c1cccc(OCCCN2CC[C@@H](O)C2)c1C [Example 2535, (R)-5-((2-(((2-(1H-imidazol-4-yl)ethyl)(methyl)amino)methyl)-4-chloro-5-((3′-(3-(3-hydroxypyrrolidin-1-yl)propoxy)-2,2′-dimethyl-[1,1′-biphenyl]-3-yl)methoxy)phenoxy)methyl)nicotinonitrile] | 3.9 |
| Cc1c(COc2cc(OCc3cncc(C#N)c3)c(CNc3nnn[nH]3)cc2Cl)cccc1-c1cccc(OCCCN2CC[C@@H](O)C2)c1C [Example 1001, (R)-5-((2-(((1H-Tetrazol-5-yl)amino)methyl)-4-chloro-5-((3′-(3-(3-hydroxypyrrolidin-1-yl)propoxy)-2,2′-dimethyl-[1,1′-biphenyl]-3-yl)methoxy)phenoxy)methyl)nicotinonitrile] | 4.9 |
| Cc1c(COc2cc(OCc3cncc(C#N)c3)c(CNCCc3nc4ccccc4n3C)cc2Cl)cccc1-c1cccc(OCC2CCCN(C)C2)c1Cl (stereo not drawn) [Example 2605, 5-((4-chloro-5-((2′-chloro-2-methyl-3′-((1-methylpiperidin-3-yl)methoxy)-[1,1′-biphenyl]-3-yl)methoxy)-2-(((2-(1-methyl-1H-benzo[d]imidazol-2-yl)ethyl)amino)methyl)phenoxy)methyl)nicotinonitrile] | 0.6 |

Further molecules by falling IC50, results first:

| IC50 [nM] | Structure (SMILES) |
| --- | --- |
| 192 | Cc1c(COc2cc(OCc3cncc(C#N)c3)c(CN(C)Cc3cc(-c4ccccc4)on3)cc2Cl)cccc1-c1cccc(OCCCN2CC[C@@H](O)C2)c1C [Example 2543, (R)-5-((4-chloro-5-((3′-(3-(3-hydroxypyrrolidin-1-yl)propoxy)-2,2′-dimethyl-[1,1′-biphenyl]-3-yl)methoxy)-2-((methyl((5-phenylisoxazol-3-yl)methyl)amino)methyl)phenoxy)methyl)nicotinonitrile] |
| 4.1 | Cc1c(COc2cc(OCc3cncc(C#N)c3)c(CN(C)Cc3ccnn3C)cc2Cl)cccc1-c1cccc(OCCCN2CC[C@@H](O)C2)c1C [Example 2559, (R)-5-((4-chloro-5-((3′-(3-(3-hydroxypyrrolidin-1-yl)propoxy)-2,2′-dimethyl-[1,1′-biphenyl]-3-yl)methoxy)-2-((methyl((1-methyl-1H-pyrazol-5-yl)methyl)amino)methyl)phenoxy)methyl)nicotinonitrile] |
| 3.4 | Cc1c(COc2cc(OCc3cncc(C#N)c3)c(CNCc3cncs3)cc2Cl)cccc1-c1cccc(OCCCN2CC[C@@H](O)C2)c1C [Example 2531, (R)-5-((4-chloro-5-((3′-(3-(3-hydroxypyrrolidin-1-yl)propoxy)-2,2′-dimethyl-[1,1′-biphenyl]-3-yl)methoxy)-2-(((thiazol-5-ylmethyl)amino)methyl)phenoxy)methyl)nicotinonitrile] |
| 3.1 | Cc1nc(CNCc2cc(Cl)c(OCc3cccc(-c4cccc(OCCCN5CC[C@@H](O)C5)c4C)c3C)cc2OCc2cncc(C#N)c2)no1 [Example 2540, (R)-5-((4-chloro-5-((3′-(3-(3-hydroxypyrrolidin-1-yl)propoxy)-2,2′-dimethyl-[1,1′-biphenyl]-3-yl)methoxy)-2-((((5-methyl-1,2,4-oxadiazol-3-yl)methyl)amino)methyl)phenoxy)methyl)nicotinonitrile] |
| 2.9 | Cc1c(COc2cc(OCc3cncc(C#N)c3)c(CNCc3nnn[nH]3)cc2Cl)cccc1-c1cccc(OCCCN2CC[C@@H](O)C2)c1C [Example 1002, (R)-5-((2-((((1H-Tetrazol-5-yl)methyl)amino)methyl)-4-chloro-5-((3′-(3-(3-hydroxy-pyrrolidin-1-yl)propoxy)-2,2′-dimethyl-[1,1′-biphenyl]-3-yl)methoxy)phenoxy)methyl)-nicotinonitrile] |
| 2.7 | Cc1c(COc2cc(OCc3cncc(C#N)c3)c(CN(C)Cc3cnco3)cc2Cl)cccc1-c1cccc(OCCCN2CC[C@@H](O)C2)c1C [Example 2551, (R)-5-((4-chloro-5-((3′-(3-(3-hydroxypyrrolidin-1-yl)propoxy)-2,2′-dimethyl-[1,1′-biphenyl]-3-yl)methoxy)-2-((methyl(oxazol-5-ylmethyl)amino)methyl)phenoxy)methyl)nicotinonitrile] |
| 1.7 | Cc1c(COc2cc(OCc3cncc(C#N)c3)c(CNCc3ccnn3C)cc2Cl)cccc1-c1cccc(OCC2CCCN(C)C2)c1Cl (stereo not drawn) [Example 2614, 5-((4-chloro-5-((2′-chloro-2-methyl-3′-((1-methylpiperidin-3-yl)methoxy)-[1,1′-biphenyl]-3-yl)methoxy)-2-((((1-methyl-1H-pyrazol-5-yl)methyl)amino)methyl)phenoxy)methyl)nicotinonitrile] |
| 1.6 | Cc1c(COc2cc(OCc3cncc(C#N)c3)c(CN(C)Cc3cnc[nH]3)cc2Cl)cccc1-c1cccc(OC2CCN(C)CC2)c1Cl [Example 2049, 5-((2-((((1H-imidazol-5-yl)methyl)(methyl)amino)methyl)-4-chloro-5-((2′-chloro-2-methyl-3′-((1-methylpiperidin-4-yl)oxy)-[1,1′-biphenyl]-3-yl)methoxy)phenoxy)methyl)nicotinonitrile] |
| 1.5 | Cc1n[nH]c(C)c1CNCc1cc(Cl)c(OCc2cccc(-c3cccc(OCCCN4CC[C@@H](O)C4)c3C)c2C)cc1OCc1cncc(C#N)c1 [Example 2570, (R)-5-((4-chloro-2-((((3,5-dimethyl-1H-pyrazol-4-yl)methyl)amino)methyl)-5-((3′-(3-(3-hydroxypyrrolidin-1-yl)propoxy)-2,2′-dimethyl-[1,1′-biphenyl]-3-yl)methoxy)phenoxy)methyl)nicotinonitrile] |
